Earlier results, collected in patent US5362496A, “Method and therapeutic system for smoking cessation” (priority 1993, dated 1994).
Where two headings read alike, the source gives them in different places. Peptide text beside a SMILES is read from it.

How the values were obtained:
[1] = system: Streptococcus mutans and other oral microorganisms
[2] = relative, Sucrose = 1.0
[3] = in vitro and in vivo studies
[4] = humans
[5] = human cadaver skin in vitro
[6] = free base; mucous membranes and intact skin
[7] = system: nicotinic cholinergic receptors in the central nervous system and at autonomic ganglia; conditions: in 10 minutes

Compound | cariogenicity [1] | Sweetness [2] | also measured
O=C(CO)[C@@H](O)[C@H](O)[C@H](O)CO [fructose] | generally not fermented to any significant degree and are less cariogenic than sucrose | – | –
COc1ccc([C@@H]2CC(=O)c3c(O)cc(O[C@@H]4O[C@H](CO)[C@@H](O)[C@H](O)[C@H]4O[C@@H]4O[C@@H](C)[C@H](O)[C@@H](O)[C@H]4O)cc3O2)cc1O [Neohesperidine] | – | 1000 | –
O=S(=O)(O)NC1CCCCC1 [Cyclamate] | – | 30-40 | –
O=C1NS(=O)(=O)c2ccccc21 [Saccharin] | – | 400-500 | –
Monellin | – | 2500 | –
OC[C@@H](O)[C@@H](O[C@H]1O[C@H](CO)[C@@H](O)[C@H](O)[C@H]1O)[C@H](O)[C@@H](O)CO [Maltitol] | generally not fermented to any significant degree and are less cariogenic than sucrose | 0.7-0.9 | –
CC1=CC(=O)NS(=O)(=O)O1 [Acesulfame] | – | 200 | –
O=C(CO)[C@@H](O)[C@H](O)[C@H](O)CO[C@H]1O[C@H](CO)[C@@H](O)[C@H](O)[C@H]1O [Palantinose] | generally not fermented to any significant degree and are less cariogenic than sucrose | 0.4-0.5 | –
OC[C@@H](O)[C@@H](O)[C@H](O)[C@@H](O)CO [Sorbitol] | generally not fermented to any significant degree and are less cariogenic than sucrose | 0.5-0.6 | –
CC1(C)[C@@H](O[C@H]2O[C@H](C(=O)O)[C@@H](O)[C@H](O)[C@H]2O[C@@H]2O[C@H](C(=O)O)[C@@H](O)[C@H](O)[C@H]2O)CC[C@]2(C)[C@H]3C(=O)C=C4[C@@H]5C[C@@](C)(C(=O)O)CC[C@]5(C)CC[C@@]4(C)[C@]3(C)CC[C@@H]12 [ammonium glycyrrhizinate] | generally not fermented to any significant degree and are less cariogenic than sucrose | – | –
COC(=O)[C@H](Cc1ccccc1)NC(=O)[C@@H](N)CC(=O)O [Aspartame] (H-Asp-Phe-OMe) | – | 100-200 | –
starch | cariogenic or caries causing | – | –
O=C[C@H](O)[C@@H](O)[C@H](O)[C@H](O)CO [glucose] | cariogenic or caries causing | – | –
OC[C@@H](O)[C@H](O)[C@@H](O)CO [Xylitol] | generally not fermented to any significant degree and are less cariogenic than sucrose | 1.0 | effect on development of new caries [3]: inhibit the development of new caries; effect on food intake [4]: decrease food intake; effect on gastric emptying [4]: prolong gastric emptying
OC[C@@H](O)[C@@H](O)[C@H](O)[C@H](O)CO [Mannitol] | generally not fermented to any significant degree and are less cariogenic than sucrose | 0.4-0.6 | –
CN1CCCC1c1cccnc1 (stereo not shown) [nicotine] | – | – | skin permeability ([5]; first day of patch use): ~0.1 mg/cm^2 ·h; skin permeability ([5]; later times): ≥ 0.4 mg/cm^2 ·h; absorption through membranes and skin [6]: absorbed readily through mucous membranes and intact skin; lipid solubility: highly lipid soluble; volatility (free base): extremely volatile; light stability (ultraviolet light): degrades when exposed to ultraviolet light; rise in nicotine blood level required for postsynaptic effects [7]: at least 10 ng/mL
OC[C@H]1O[C@@](CO)(O[C@H]2O[C@H](CO)[C@@H](O)[C@H](O)[C@H]2O)[C@@H](O)[C@@H]1O [sucrose, reference compound] | cariogenic or caries causing | – | –
